Reference: paper PMC9861162 (Pharmaceuticals, 2022)

Tests used:
CYP2A6 [1] = target: T1, CYP2A6 (Homo sapiens, UniProt P11509); test: in vitro CYP450 metabolism inhibition assay in human liver microsomes, CYP2A6 (coumarin); conditions: HLM, substrate coumarin; figure in parentheses not defined
T1 sequence (P11509 1-494): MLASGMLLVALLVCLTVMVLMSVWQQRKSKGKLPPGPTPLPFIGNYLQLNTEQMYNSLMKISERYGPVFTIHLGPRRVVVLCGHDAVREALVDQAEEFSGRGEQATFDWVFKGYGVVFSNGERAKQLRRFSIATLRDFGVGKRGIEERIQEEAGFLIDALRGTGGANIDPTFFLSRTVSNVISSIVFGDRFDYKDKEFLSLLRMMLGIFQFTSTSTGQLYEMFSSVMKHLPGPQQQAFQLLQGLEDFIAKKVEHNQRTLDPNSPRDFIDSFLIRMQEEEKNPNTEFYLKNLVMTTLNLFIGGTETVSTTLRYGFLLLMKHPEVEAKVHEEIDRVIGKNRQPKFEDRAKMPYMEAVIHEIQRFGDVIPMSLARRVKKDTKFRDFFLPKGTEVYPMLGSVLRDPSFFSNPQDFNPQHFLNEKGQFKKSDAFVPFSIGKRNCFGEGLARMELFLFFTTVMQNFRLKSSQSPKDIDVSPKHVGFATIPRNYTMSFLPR
Protocol: (§1) The incubation conditions employed for each CYP450 isoform were performed, as previously described.
(§2) Buffer solution (0.1 mol/L aqueous phosphate buffer, pH 7.4, 69 µL), NADPH-regenerating solutions (10 µL solution A: 26 mmol/L NADP+, 66 mmol/L glucose-6-phosphate, and 66 mmol/L MgCl2; 2 µL solution B: 40 U/mL glucose-6-phosphate dehydrogenase in 5 mmol/L sodium citrate), and deionized water (69 µL) were added, in a total volume of 150 μL. The tubes were vortex-mixed and preincubated with continuous gentle shaking for 5 min at 37 °C in a shaking water bath. Reactions were initiated by the addition of 50 µL of HLM solution in the tubes which were gently mixed by hand and incubated with continuous gentle shaking at 37 °C. Aliquots of 200 µL ice-cold solvent (Table 1) containing IS (1 µg/mL) were added. […] The supernatants were transferred to glass autosampler vials and submitted to LC-MS/MS analysis (5 µL injection volume) to monitor the substrate metabolite formation.

CYP3A [2] = conditions: clinical DDI studies; ref [9]; cited from earlier work
CYP1A1 = system: CYP1A1; design: method as in PMID 25429674; conditions: ref [9]; cited from earlier work
CYP2A6 [3] = target: T1, CYP2A6; design: method as in PMID 25429674; conditions: ref [9]; cited from earlier work
CYP3A4/5 = test: in vitro CYP450 metabolism inhibition assay in human liver microsomes, CYP3A (midazolam or nifedipine); conditions: human, microsomes, pH 7.4
Protocol: as §1, §2

CYP3A [4] = conditions: ref [9]; cited from earlier work
CYP1A2 [5] = target: T2, CYP1A2 (Homo sapiens, UniProt P05177); design: method as in PMID 25429674; conditions: ref [9]; cited from earlier work
T2 sequence (P05177 1-516): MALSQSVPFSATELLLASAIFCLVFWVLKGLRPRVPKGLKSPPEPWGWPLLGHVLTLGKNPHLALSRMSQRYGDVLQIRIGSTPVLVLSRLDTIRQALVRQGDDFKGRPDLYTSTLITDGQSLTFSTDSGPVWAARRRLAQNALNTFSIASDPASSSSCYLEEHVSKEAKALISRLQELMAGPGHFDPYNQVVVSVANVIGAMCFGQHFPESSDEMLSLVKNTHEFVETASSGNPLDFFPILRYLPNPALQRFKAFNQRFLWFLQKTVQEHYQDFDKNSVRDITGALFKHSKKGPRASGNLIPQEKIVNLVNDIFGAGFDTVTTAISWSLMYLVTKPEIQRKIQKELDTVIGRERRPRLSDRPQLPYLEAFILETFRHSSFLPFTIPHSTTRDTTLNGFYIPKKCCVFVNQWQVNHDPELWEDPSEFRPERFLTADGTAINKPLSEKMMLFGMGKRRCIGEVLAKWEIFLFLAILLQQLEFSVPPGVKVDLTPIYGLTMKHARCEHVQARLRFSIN

CYP3A4 = conditions: cited from earlier work
CYP2C8 = target: T3, CYP2C8 (Homo sapiens, UniProt P10632); design: method as in Hua et al. [19]; conditions: by CYP2C8; ref Hua et al. [19]; cited from earlier work
T3 sequence (P10632 1-490): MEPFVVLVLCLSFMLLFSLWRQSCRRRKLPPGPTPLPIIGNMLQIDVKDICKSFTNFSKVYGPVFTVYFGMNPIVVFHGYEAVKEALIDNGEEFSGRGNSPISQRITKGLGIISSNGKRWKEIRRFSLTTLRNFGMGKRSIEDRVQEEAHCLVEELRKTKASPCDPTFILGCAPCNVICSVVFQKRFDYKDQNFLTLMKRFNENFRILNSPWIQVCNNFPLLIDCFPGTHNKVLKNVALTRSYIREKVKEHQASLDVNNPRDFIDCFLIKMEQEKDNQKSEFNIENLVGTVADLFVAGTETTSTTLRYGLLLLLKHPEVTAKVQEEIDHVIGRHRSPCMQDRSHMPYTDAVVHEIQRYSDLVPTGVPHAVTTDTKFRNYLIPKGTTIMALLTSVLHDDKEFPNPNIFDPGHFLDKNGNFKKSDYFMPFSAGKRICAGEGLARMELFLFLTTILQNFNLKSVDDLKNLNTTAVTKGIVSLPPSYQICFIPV

CYP1A2 [6] = target: T2, CYP1A2; conditions: cited from earlier work
CYP2B6 = system: CYP2B6; design: method as in PMID 25429674; conditions: ref [9]; cited from earlier work
CYP2D6 = CYP2D6 (Homo sapiens, UniProt P10635); design: method as in PMID 25429674; conditions: ref [9]; cited from earlier work
CYP2C19 = CYP2C19 (Homo sapiens, UniProt P33261); design: method as in PMID 25429674; conditions: ref [9]; cited from earlier work
Chain of CYP2C19 (P33261 whole entry): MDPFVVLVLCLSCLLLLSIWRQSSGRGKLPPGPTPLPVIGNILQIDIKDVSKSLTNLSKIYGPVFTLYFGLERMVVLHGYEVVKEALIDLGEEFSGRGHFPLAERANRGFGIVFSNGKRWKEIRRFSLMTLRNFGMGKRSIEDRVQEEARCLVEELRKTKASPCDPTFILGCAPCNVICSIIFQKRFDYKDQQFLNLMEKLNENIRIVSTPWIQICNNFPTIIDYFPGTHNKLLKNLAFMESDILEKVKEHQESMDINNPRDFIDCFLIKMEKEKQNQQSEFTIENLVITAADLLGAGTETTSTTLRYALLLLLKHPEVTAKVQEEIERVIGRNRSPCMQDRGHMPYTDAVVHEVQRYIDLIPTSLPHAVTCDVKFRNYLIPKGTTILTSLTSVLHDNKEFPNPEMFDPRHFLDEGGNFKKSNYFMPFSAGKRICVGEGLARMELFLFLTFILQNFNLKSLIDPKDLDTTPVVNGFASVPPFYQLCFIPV

Chain of CYP2D6 (P10635 whole entry): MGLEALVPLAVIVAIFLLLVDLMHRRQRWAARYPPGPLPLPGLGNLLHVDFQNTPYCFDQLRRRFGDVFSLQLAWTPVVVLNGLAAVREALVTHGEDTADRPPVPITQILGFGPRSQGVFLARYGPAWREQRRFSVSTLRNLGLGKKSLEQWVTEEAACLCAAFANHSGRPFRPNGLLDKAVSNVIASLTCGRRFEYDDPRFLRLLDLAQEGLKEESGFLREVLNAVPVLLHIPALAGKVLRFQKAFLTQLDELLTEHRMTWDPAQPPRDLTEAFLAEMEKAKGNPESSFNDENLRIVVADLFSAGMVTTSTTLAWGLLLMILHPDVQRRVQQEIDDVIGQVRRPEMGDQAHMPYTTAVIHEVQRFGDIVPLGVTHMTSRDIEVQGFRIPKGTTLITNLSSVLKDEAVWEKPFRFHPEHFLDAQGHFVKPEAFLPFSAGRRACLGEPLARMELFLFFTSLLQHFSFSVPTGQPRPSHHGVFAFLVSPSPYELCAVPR

N[C@@H]1C[C@H]1c1ccccc1 (racemic) [Tranylcypromine, reference compound]
IC50 (CYP2A6 [1]): 799 nM

CC(=O)N1CCN(c2ccc(OCC3COC(Cn4ccnc4)(c4ccc(Cl)cc4Cl)O3)cc2)CC1 (stereo not shown) [Ketoconazole]
clinical CYP3A inhibitor strength (CYP3A [2]): moderate to strong CYP3A inhibitors
in vitro inhibition of CYP1A1 (CYP1A1): strongly inhibits
in vitro inhibition of CYP2A6 (CYP2A6 [3]): moderately inhibits
IC50 (CYP3A4/5): < 10 nM
in vitro inhibition of CYP3A (CYP3A [4]): strongly inhibits
in vitro inhibition of CYP1A2 (CYP1A2 [5]): moderately inhibits

Cc1ncc2n1-c1ccc(Cl)cc1C(c1ccccc1F)=NC2 [Midazolam]
fm (fraction metabolized) (CYP3A4): 0.88

CC(=O)O[C@H]1C(=O)[C@@]2(C)[C@H]([C@H](OC(=O)c3ccccc3)[C@]3(O)C[C@H](OC(=O)[C@H](O)[C@@H](NC(=O)c4ccccc4)c4ccccc4)C(C)=C1C3(C)C)[C@]1(OC(C)=O)CO[C@@H]1C[C@@H]2O [Paclitaxel]
fm (fraction metabolized) (CYP2C8): 0.5

CCOc1ccc(NC(C)=O)cc1 [Phenacetin]
fm (fraction metabolized) (CYP1A2 [6]): 0.71

OC(Cn1cncn1)(Cn1cncn1)c1ccc(F)cc1F [fluconazole]
clinical CYP3A inhibitor strength (CYP3A [2]): moderate to strong CYP3A inhibitors
in vitro inhibition of CYP3A (CYP3A [4]): moderately inhibits

CCC(C)n1ncn(-c2ccc(N3CCN(c4ccc(OCC5COC(Cn6cncn6)(c6ccc(Cl)cc6Cl)O5)cc4)CC3)cc2)c1=O (stereo not shown) [itraconazole]
clinical CYP3A inhibitor strength (CYP3A [2]): moderate to strong CYP3A inhibitors
in vitro inhibition of CYP2B6 (CYP2B6): strongly inhibits
in vitro inhibition of CYP3A (CYP3A [4]): strongly inhibits

Clc1ccc(COC(Cn2ccnc2)c2ccc(Cl)cc2Cl)c(Cl)c1 (stereo not shown) [miconazole]
in vitro inhibition of CYP2D6 (CYP2D6): strongly inhibits
in vitro inhibition of CYP2A6 (CYP2A6 [3]): strongly inhibits
in vitro inhibition of CYP2C19 (CYP2C19): strongly inhibits
in vitro inhibition of CYP2B6 (CYP2B6): strongly inhibits
in vitro inhibition of CYP3A (CYP3A [4]): strongly inhibits

CC[C@@H]([C@H](C)O)n1ncn(-c2ccc(N3CCN(c4ccc(OC[C@@H]5CO[C@@](Cn6cncn6)(c6ccc(F)cc6F)C5)cc4)CC3)cc2)c1=O [posaconazole]
clinical CYP3A inhibitor strength (CYP3A [2]): moderate to strong CYP3A inhibitors
in vitro inhibition of CYP3A (CYP3A [4]): strongly inhibits
